Reference: patent publication US20110245218A1 (priority 2010, published 2011)

| Structure (SMILES) | melting point [°C] |
| --- | --- |
| CN1C(=O)C(S)=C(SC(=N)N)C1=O [Compound 27, 4-{[amino(iminio)methyl]sulphanyl}-1-methyl-2,5-dioxo-2,5-dihydro-1H-pyrrole-3-thiolate] | 150 to 152 |
| CN1C(=O)C(S)=C(S)C1=O | 145 to 148 |
| CN1C(=O)C(SC(=N)N)=C(SC(=N)N)C1=O [Compound 1, [(1-methyl-2,5-dioxo-2,5-dihydro-1H-pyrrole-3,4-diyl)disulphanediyl]bis(aminomethaniminium) dichloride] | 163 to 164 |
